From PubChem BioAssay AID435004 (Broad Institute, 2010)
Records with an inconclusive call do not appear. Activity calls are given as the source filed them.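 The calls were made as follows: active = EC50 at most a set number of log units above the top tested dose; inconclusive = flat curve fit with activity between 30% and 70%, or poor fit; inactive = EC50 further above the top dose than that.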

System: NIH3T3-HGL HSF1 luciferase reporter, MG132, 8 h
Assay: HSF1 potentiators in luciferase reporter cells, confirmation, cell-based, NIH3T3, luminescence, dose retest (AID 435004)

| SMILES | EC50 |
| --- | --- |
| C#CCOCCOCCOCCNc1nc(N2CCN(C(=O)[C@H](Cc3cc4ccccc4[nH]3)n3cc(C(N)CC(C)C)nn3)CC2)nc(N2CCN(C(=O)[C@H](CCC(=O)O)n3cc(C(N)[C@H](C)CC)nn3)CC2)n1 (stereo partly drawn) | > 26 µM (inactive) |
| O=C1CC(c2ccccc2Cl)CC(O)=C1C=Nc1ccccc1 (stereo not drawn) | 4.71 µM |
| CC(C)CCN=CC1=C(O)CC(c2ccccc2)CC1=O (stereo not drawn) | > 26 µM (inactive) |
